Laboratory results from US7902226B2, “Dehalogeno-compounds” (Daiichi Pharmaceutical Co., Ltd., priority 2000, dated 2011).
Converted amounts (≈) assume the structure as drawn. Like-named read-outs stand apart in the source and are kept apart here.

How the values were obtained:
[1] = test system: E. coli, NIHJ; experiment: Antibacterial activity (MIC), standard method of the Japan Society of Chemotherapy; type: cell-based; conditions: Escherichia coli
Description: (§1) Antibacterial activities of the compounds of this invention were measured in accordance to the standard method designated by the Japan Society of Chemotherapy, with the results shown as MIC values (microgram/ml) units in the following table. For comparison with the MIC values of the compounds of this invention, MIC values of levofloxacin (LVFX), ciprofloxacin (CPFX) and 7-[3-(R)-(1-aminocyclopropyl)pyrrolidin-1-yl]-6-fluoro-1-[2-(S)-fluoro-1-(R)-cyclopropyl]-8-methyl-1,4-dihydro-4-oxoquinoline-3-carboxylic acid (Reference drug 1), which is described in PCT/JP96/00208, are also shown in the table.

[2] = test system: K. pneumoniae, Type 1; experiment: as above; type: cell-based; conditions: Klebsiella pneumoniae, TYPE1
Description: as §1

[3] = test system: Pr. vulgalis, 08601; experiment: as above; type: cell-based
Description: as §1

[4] = test system: Ps. aeruginosa, 32104; experiment: as above; type: cell-based; conditions: Pseudomonas aeruginosa
Description: as §1

[5] = test system: Ps. aeruginosa, 32121; experiment: as above; type: cell-based; conditions: Pseudomonas aeruginosa
Description: as §1

[6] = test system: Ps. maltophilia, IID-1275; experiment: as above; type: cell-based; conditions: Stenotrophomonas maltophilia, IID1275
Description: as §1

[7] = test system: S. aureus, 209P; experiment: as above; type: cell-based; conditions: Staphylococcus aureus
Description: as §1

[8] = test system: S. aureus, 870307; experiment: as above; type: cell-based; conditions: Staphylococcus aureus
Description: as §1

[9] = test system: S. epidermidis, 56500; experiment: as above; type: cell-based; conditions: Staphylococcus epidermidis
Description: as §1

[10] = test system: S. flexneri, 2A 5503; experiment: as above; type: cell-based; conditions: Shigella flexneri, 2A5503
Description: as §1

[11] = test system: Ser. marcescens, 10100; experiment: as above; type: cell-based; conditions: Serratia marcescens
Description: as §1

[12] = test system: Str. faecalis, ATCC 19433; experiment: as above; type: cell-based; conditions: Enterococcus faecalis, ATCC19433
Description: as §1

[13] = test system: Str. pneumoniae J24; experiment: as above; type: cell-based; conditions: Streptococcus pneumoniae
Description: as §1

[14] = test system: Str. pyogenes, G-36; experiment: as above; type: cell-based; conditions: Streptococcus pyogenes, G36
Description: as §1

[15] = Blood concentration and organ concentration after oral administration (absorption test groups); type: in vivo; conditions: fasting rats, 20 mg/kg; for Kp / Cmax / AUC(0-t) / half-life: male, Crj: CD IGS, rat; for Cmax / AUC(0-t) / half-life: serum; for AUC(0-t): read-out: Serum AUC0-4h; for half-life: read-out: Serum t1/2 (converted)
Description: For the compound of this invention described as Example 1, the blood concentration and organ concentration after oral administration were determined by the following methods. Measurements were also made by the same methods for Reference drug 1.
An administration solution was prepared by dissolving a tested compound to a concentration of 2 mg/ml (as free compound) in distilled water, and using a 2.5 ml disposable syringe or a metal oral probe, the solution was orally administered at a dose of 20 mg/kg to fasting rats (Crj: CD IGS; male; 7-week-old; Charles River Japan, Inc.).
The absorption test groups (4 rats per group; total of 6 groups) were killed by exsanguination while under ether anesthetization 0.25, 0.5, 1, 2, 4, or 6 hours after drug administration, and the blood, liver, kidneys, and lungs were sampled. With the blood, serum was sampled by centrifugation (3000 rpm×15 minutes, 4° C.) after coagulation. Tissues were homogenized after adding 3 to 5 ml of 0.1M phosphate buffer solution (pH 7.0) and the centrifugation supernatants (3000 rmpm×15 minutes, 4° C.) were collected.
Determination of drug concentrations in liquid samples were quantified by an agar well method bioassay using the B. subtilis ATCC6051 strain as the test organism. A test medium was prepared by inoculating a suspension containing 5×10^7 CFU/ml of spores of the test bacteria at a proportion of 1% into an nutrient agar (Eiken Kagaku) that was sterilized at 121° C. for 15 minutes and then cooled to approximately 50° C. After placing 10 ml each of this medium in a sterilized Petri dish and solidifying horizontally, four holes of 8 mm diameter were made to prepare a test plate medium. The Bioassay System TDA-1 (Dainippon Seiki) was used for preparation of the test plate media. For the measurements, the test samples (diluted with serum or phosphate buffer solution as necessary), serial dilutions of the drug solutions for calibration (two-fold serial dilutions prepared so that the inhibition ring diameter will be approximately 10 to 30 mm), and a reference drug solution (a drug solution of given concentration for correction of the error among plates; normally, a concentration of forming an inhibition ring of approximately […] is used) were prepared, and 50 μL of the test sample (or the drug solution for calibration) were placed in each of two of the four holes of each plate and 50 μL of the reference solution was placed in each of the other two holes. After addition of the sample, the plate medium was set still for 1 hour at 4° C. to perform preliminary dispersion and then culturing at 37° C. was performed for approximately 18 hours, and the inhibition ring diameters were measured using CA-400 (Dainippon Seiki). The concentrations of the test samples were measured using a calibration curve determined by second-order regression from the logarithmic values of the drug concentration of the calibration curve serial dilutions and the inhibition ring diameters.
For the tissue concentration (μg/ml), the concentration (μg/ml) in the homogenate supernatant was determined from the tissue weight (g) and the added phosphate buffer amount (ml) and using the following equation: [Tissue concentration]=[Homogenate concentration]×([Tissue weight]+[Buffer solution amount])/[Tissue weight]
For each drug, the pharmacokinetic parameters in rats were calculated based on mean concentration, by non-compartmental analysis, and using the pharmacodynamics analysis software, PSAG-CP (Asmedica).

[16] = kidney/serum, kidney, read-out: AUC0-4h tissue/serum ratio Kidney
[17] = liver/serum, liver, read-out: AUC0-4h tissue/serum ratio Liver
[18] = lung/serum, lung, read-out: AUC0-4h tissue/serum ratio Lung

SMILES	MIC [1]	MIC [2]	MIC [3]	MIC [4]	MIC [5]	MIC [6]	MIC [7]	MIC [8]	MIC [9]	MIC [10]	MIC [11]	MIC [12]	MIC [13]	MIC [14]	Tissue AUC0-4h Kidney ([15]; kidney)	Tissue Cmax Kidney ([15]; kidney)	Tissue AUC0-4h Liver ([15]; liver)	Tissue Cmax Liver ([15]; liver)	Tissue AUC0-4h Lung ([15]; lung)	Tissue Cmax Lung ([15]; lung)	further results
Cc1c(N2CC[C@@H](C3(N)CC3)C2)ccc2c(=O)c(C(=O)O)cn([C@@H]3C[C@@H]3F)c12 [Example 1, 7-[3-(R)-(1-aminocyclopropyl)pyrrolidin-1-yl]-1-[2-(S)-fluoro-1-(R)-cyclopropyl]-1,4-dihydro-8-methyl-4-oxoquinoline-3-carboxylic acid]	≤ 0.003 µg/mL	0.025 µg/mL (≈ 0.0649 µM)	≤ 0.003 µg/mL	0.05 µg/mL (≈ 0.13 µM)	0.025 µg/mL (≈ 0.0649 µM)	0.2 µg/mL (≈ 0.519 µM)	≤ 0.003 µg/mL	0.05 µg/mL (≈ 0.13 µM)	≤ 0.003 µg/mL	0.006 µg/mL (≈ 0.0156 µM)	0.025 µg/mL (≈ 0.0649 µM)	0.012 µg/mL (≈ 0.0311 µM)	≤ 0.003 µg/mL	≤ 0.003 µg/mL	29.0	14.2 µg/g	34.5	27.4 µg/g	10.0	3.8 µg/g	Kp [15, 16]: 29; Kp [15, 17]: 34.5; Kp [15, 18]: 10; Cmax [15]: 1700 ng/mL; AUC(0-t) [15]: 3100 ng·h/mL; half-life [15]: 1.2 h
Cc1c(N2CC[C@@H](C3(N)CC3)C2)c(F)cc2c(=O)c(C(=O)O)cn([C@@H]3C[C@@H]3F)c12 [Reference drug 1, 7-[3-(R)-(1-aminocyclopropyl)pyrrolidin-1-yl]-6-fluoro-1-[2-(S)-fluoro-1-(R)-cyclopropyl]-8-methyl-1,4-dihydro-4-oxoquinoline-3-carboxylic acid, reference compound]	≤ 0.003 µg/mL	0.006 µg/mL (≈ 0.0149 µM)	≤ 0.003 µg/mL	0.025 µg/mL (≈ 0.062 µM)	0.012 µg/mL (≈ 0.0297 µM)	≤ 0.003 µg/mL	≤ 0.003 µg/mL	0.012 µg/mL (≈ 0.0297 µM)	≤ 0.003 µg/mL	≤ 0.003 µg/mL	0.012 µg/mL (≈ 0.0297 µM)	0.006 µg/mL (≈ 0.0149 µM)	≤ 0.003 µg/mL	≤ 0.003 µg/mL	7.1	5.0 µg/g	10.4	11.6 µg/g	5.3	3.0 µg/g	Kp [15, 16]: 7.1; Kp [15, 17]: 10.4; Kp [15, 18]: 5.3; Cmax [15]: 1600 ng/mL; AUC(0-t) [15]: 2300 ng·h/mL; half-life [15]: 1 h
